According to US10472663B2, “Procedure for the rapid determination of bacterial susceptibility to antibiotics that inhibit protein synthesis” (ABM TECHNOLOGIES, LLC, priority 2015, dated 2019):
Converted amounts (≈) assume the structure as drawn.

Tests used:
Staphylococcus aureus = assay: Micromax assay of DNA fragmentation by DNase released with lysostaphin after azithromycin (Example 3); assay type: cell-based; conditions: for DNA fragmentation of released nucleoids: azithromycin 2 μg/ml 120 min followed by lysostaphin 10 μg/ml 1 min
Procedure: In an exemplification of this principal, two strains of S. aureus growing in Mueller-Hinton agar with 5% sheep blood were assayed. One strain was susceptible to the macrolide azithromycin (an inhibitor of protein synthesis) (FIGS. 13-15) and the other strain was a clinical isolate resistant to azithromycin (FIGS. 16-18). The purpose was to rapidly distinguish susceptible and non-susceptible strains to azithromycin. Cultures were processed direct from standard growing agar plates 18-24 h and it was not necessary the cells being exponentially growing previously to the assay.
Each of these strain was subjected to four treatments. One portion of both strains was incubated with azithromycin at 2 μg/ml for 120 min; 2 μg/ml being indicated by the CLSI as the breakpoint of susceptibility to azithromycin. The cells were then lysed to release nucleoids and images of FIGS. 13 and 16 were generated. Another portion of each strain was incubated with lysostaphin at 10 μg/ml for 1 min. FIGS. 14 and 17 depict the nucleoids released in each strain for this treatment. Still another portion was incubated with Azithromycin at 2 μg/ml for 120 min followed by lysostaphin at 10 μg/ml for 1 min, without removing the azithromycin. The assays for these treatments can be seen at FIGS. 15 and 18. A final portion was left without either antibiotic.
After the incubation, the cells were processed using the variant of a Micromax technology to lyse cells with affected cell walls. As indicated previously, samples from cells from the culture are immersed in an agarose microgel on a slide and incubated with a specific lysing solution to remove the cell wall in those cells affected by lysostaphin and release in the microgel the nucleoids contained inside the bacteria. These are dried, stained with a highly sensitive fluorochrome for DNA like SYBR Gold and visualized under fluorescence microscopy.

H. influenzae = assay: Cell enlargement by low-dose mitomycin C after azithromycin; assay type: cell-based, Haemophilus influenzae; conditions: azithromycin 4 μg/ml 30 min followed by mitomycin C 0.5 μg/ml 120 min; azithromycin-resistant strain
Procedure: In one exemplification, two strains of H. influenzae exponentially growing in Mueller-Hinton broth were incubated under four differing treatments and then assayed. One strain was susceptible and the other resistant to the macrolide azithromycin (an inhibitor of protein synthesis). For the purpose of rapidly distinguishing the susceptible and the resistant strain to azithromycin each strain was incubated under four sets of conditions.
A portion of each strain was incubated with azithromycin at 4 μg/ml for 150 minutes. The dose azithromycin corresponded to the dose indicated by the CLSI as the breakpoint of susceptibility to azithromycin in the standard antibiograms based on microdilution. Another portion of each strain was incubated with Mitomycin C at 0.5 μg/ml for 120 minutes. Still another portion was incubated with azithromycin at 4 μg/ml for 30 min followed by mitomycin C at 0.5 μg/ml for 120 min, without removing the azithromycin. A final portion of each strain was not incubated with any antibiotics.

S. pneumoniae [1] = assay: Micromax assay of autolysis and DNA fragmentation induced by Triton-lysozyme-EDTA after azithromycin (Example 4); assay type: cell-based, Streptococcus pneumoniae; conditions: for cells lysed and with fragmented DNA: azithromycin 0.5 μg/ml 60 min followed by Triton-lysozyme-EDTA 5 min; for less fragmentation than incubation with Triton-lysozyme-EDTA alone: azithromycin 0.5 μg/ml 60 min followed by Triton-lysozyme-EDTA
Procedure: (§1) In an exemplification of this principal, two strains of S. pneumoniae growing in Mueller-Hinton II broth complemented with cations and 2-5% lysed horse blood, at 37° C. with 5% CO2, were assayed. […] The purpose of the assay was to distinguish rapidly the susceptible and the resistant (i.e. non-susceptible) strain to azithromycin.
Each of these two strains were subjected to four treatments. A first portion of both strains was incubated with azithromycin at a concentration of 0.5 μg/ml for 60 min. The dose was that indicated by the CLSI as the breakpoint of susceptibility to azithromycin in the standard antibiogram based on microdilution. Another portion of both strains was incubated with 0.05% Triton X-100, 2 mg/ml lysozyme, 25 mM EDTA, 5 min. Still another portion of each strain was incubated with azithromycin at 0.5 μg/ml for 60 min followed by 0.05% Triton X-100, 2 mg/ml lysozyme, 25 mM EDTA, 5 min, without removing the azithromycin. A final portion of each strain remained without any antibiotics.
After incubation cells were processed using the variant of the Micromax technology to visualize the nucleoids. In the same manner indicated previously, samples from cells from the culture are immersed in an agarose microgel on a slide and incubated with a specific lysing solution to remove the cell wall in all the cells and release in the microgel the nucleoids contained inside the bacteria. […] The microgels are dried, stained with a high sensitive fluorochrome for DNA like SYBR Gold and visualized under fluorescence microscopy.

S. pneumoniae [2] = assay: MIC, standard antibiogram based on microdilution; assay type: cell-based; conditions: Streptococcus pneumoniae
Procedure: (§2) A quantitative method may rely on dilution in a series of broths or agar solutions having progressively lower concentrations of the antibiotic in question. The lowest concentration of antibiotic in which the bacteria cannot grow provides the minimum inhibitory concentration of that antibiotic to the tested strain of bacteria. This quantitative method may be routinely employed in the hospitals, usually using commercial panels of antibiotics and semi-automated systems of incubation and software for data interpretation like the MicroScan WalkAway™ (Siemens), Phoenix (Becton Dickinson), or Vitek™ 2 (bioMérieux). With such growth-dependent automated systems, results of susceptibility or resistance to antimicrobians from a specific microorganism may be obtained in around 6-9 hours.
as §1

Enterococcus faecalis [3] = assay: MIC, standard antibiogram based on microdilution; assay type: cell-based
Procedure: as §2
(§3) As an example, two strains of Enterococcus faecalis exponentially growing in Mueller-Hinton broth were incubated under four different conditions and then assayed. […] Each strain was subjected to four treatments for the purpose of rapidly distinguishing the susceptible and the resistant strain to erythromycin.

Enterococcus faecalis [4] = assay: Variant Micromax assay of cell lysis by lysozyme after erythromycin (Example 6); assay type: cell-based; conditions: for lysed cells: erythromycin 0.5 μg/ml 75 min, lysozyme 1 mg/ml during last 10 min
Procedure: as §3
The dose was that indicated by the CLSI as the breakpoint of susceptibility to erythromycin in the standard antibiogram based on microdilution. Another portion of both strains was incubated with lysozyme 1 mg/ml, 10 min at 37° C. […]
After incubation with lysozyme, the cells were processed using a variant of the Micromax technology to visualize the nucleoids, i.e. spreading of the bacterial chromosomal DNA, in all the cells of the population. Samples from the cultures were immersed in an agarose microgel on a slide and incubated with a specific lysing solution to remove the cell wall in all the cells and release in the microgel the nucleoids contained inside the bacteria. These are dried, stained with a highly sensitive fluorochrome for DNA like SYBR Gold and visualized under fluorescence microscopy.

[5] = azithromycin-susceptible strain
[6] = erythromycin-susceptible strain

| SMILES | DNA fragmentation of released nucleoids (Staphylococcus aureus; azithromycin-resistant clinical isolate) | DNA fragmentation of released nucleoids (Staphylococcus aureus; [5]) | modification of the appearance of the bacteria (Staphylococcus aureus; azithromycin alone 2 μg/ml 120 min, both strains) | cell enlargement (H. influenzae) | cells lysed and with fragmented DNA (S. pneumoniae [1]; resistant strain) | cells lysed and with fragmented DNA (S. pneumoniae [1]; susceptible strain) | less fragmentation than incubation with Triton-lysozyme-EDTA alone (S. pneumoniae [1]; resistant strain) | less fragmentation than incubation with Triton-lysozyme-EDTA alone (S. pneumoniae [1]; susceptible strain) | modification of the bacteria (S. pneumoniae [1]; azithromycin alone 0.5 μg/ml 60 min, both strains) | MIC (S. pneumoniae [2]; azithromycin-resistant strain) | MIC (S. pneumoniae [2]; [5]) | MIC (Enterococcus faecalis [3]; erythromycin-resistant strain) | MIC (Enterococcus faecalis [3]; [6]) | lysed cells (Enterococcus faecalis [4]; erythromycin-resistant strain) | lysed cells (Enterococcus faecalis [4]; [6]) | response pattern in further Enterococcus strains (Enterococcus faecalis [4]; four more erythromycin-susceptible and thirteen more erythromycin-resistant strains) |
| --- | --- | --- | --- | --- | --- | --- | --- | --- | --- | --- | --- | --- | --- | --- | --- | --- |
| CC[C@H]1OC(=O)[C@H](C)[C@@H](O[C@H]2C[C@@](C)(OC)[C@@H](O)[C@H](C)O2)[C@H](C)[C@@H](O[C@@H]2O[C@H](C)C[C@H](N(C)C)[C@H]2O)[C@](C)(O)C[C@@H](C)CN(C)[C@H](C)[C@@H](O)[C@]1(C)O [azithromycin] | a large extend of DNA fragmentation | strongly reduced level of DNA fragmentation or even suppression of DNA fragmentation | did not result in modification of the appearance of the bacteria | the bacteria appeared enlarged | 86% | about 40% | 7% | 44% | did not result in modification of the bacteria | > 32 µg/mL | 0.25 µg/mL (≈ 0.334 µM) |  |  |  |  |  |
| CC[C@H]1OC(=O)[C@H](C)[C@@H](O[C@H]2C[C@@](C)(OC)[C@@H](O)[C@H](C)O2)[C@H](C)[C@@H](O[C@@H]2O[C@H](C)C[C@H](N(C)C)[C@H]2O)[C@](C)(O)C[C@@H](C)C(=O)[C@H](C)[C@@H](O)[C@]1(C)O [erythromycin] |  |  |  |  |  |  |  |  |  |  |  | > 128 µg/mL | 0.125 µg/mL (≈ 0.17 µM) | 96.77% | 3.87% | a similar response pattern has been reproduced |
